# According to US20250230193A1, “CYCLIC COMPOUND HAVING SELECTIVE KRAS INHIBITORY EFFECT ON HRAS AND NRAS” (CHUGAI SEIYAKU KABUSHIKI KAISHA, priority 2022, published 2025):
# Experiments:
# [1] = molecular target: GDP-bound HRAS wild-type protein (Homo sapiens, UniProt P01112); experiment: Binding to HRAS by surface plasmon resonance (SPR), Single Cycle Kinetics; settings: KD ratio HRAS/KRAS, class symbols
# [2] = molecular target: GDP-bound NRAS wild-type protein (Homo sapiens, UniProt P01111); experiment: Binding to NRAS by surface plasmon resonance (SPR), Single Cycle Kinetics; settings: KD ratio NRAS/KRAS, class symbols
# GDP-bound NRAS wild-type protein, sequence (P01111 whole entry): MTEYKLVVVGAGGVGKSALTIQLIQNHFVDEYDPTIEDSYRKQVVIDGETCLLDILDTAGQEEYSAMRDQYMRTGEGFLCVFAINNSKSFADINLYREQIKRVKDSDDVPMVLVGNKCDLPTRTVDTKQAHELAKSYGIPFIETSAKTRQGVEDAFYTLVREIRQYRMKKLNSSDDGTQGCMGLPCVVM
# GDP-bound HRAS wild-type protein, sequence (P01112 whole entry): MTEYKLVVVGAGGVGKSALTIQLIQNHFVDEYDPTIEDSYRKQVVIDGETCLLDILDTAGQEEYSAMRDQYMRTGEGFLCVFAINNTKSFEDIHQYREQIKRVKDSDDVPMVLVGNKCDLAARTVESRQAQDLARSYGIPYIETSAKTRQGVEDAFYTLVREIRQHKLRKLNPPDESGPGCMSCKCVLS
Structure (SMILES),HRAS/KRAS (ratio of KD value with respect to GDP-bound HRAS wild-type protein to KD value with respect to KRAS) [1],NRAS/KRAS (ratio of KD value with respect to GDP-bound NRAS wild-type protein to KD value with respect to KRAS) [2]
CCCC[C@H]1C(=O)N[C@@H]([C@@H](C)CC)C(=O)N(C)CC(=O)N(C)[C@H]2C/C=C\CCN(C2=O)[C@@H](Cc2ccc(C)cc2)C(=O)N(C)CC(=O)N[C@@H](CCc2cc(F)c(C(F)(F)F)c(F)c2)C(=O)N2C[C@H](OCC)C[C@H]2C(=O)NC2(CC(C)(C)C2)C(=O)N(C)[C@@H](C2CCCC2)C(=O)N(C)[C@H](C(=O)N(C)CC)CC(=O)N1C [PP2808],B (a compound having 3 or more and less than 10 is denoted as B),B (a compound having 3 or more and less than 10 is denoted as B)
CCC[C@H]1C(=O)N[C@@H]([C@@H](C)CC)C(=O)N(C)CC(=O)N(C)[C@H]2C/C=C\CCN(C2=O)[C@@H](Cc2ccc(C(F)(F)F)cc2)C(=O)N(C)CC(=O)N[C@@H](CCc2ccc(C(F)(F)F)c(OC)c2)C(=O)N2C[C@H](OCC)C[C@H]2C(=O)NC2(CC(C)(C)C2)C(=O)N(C)[C@@H](CC2CC2)C(=O)N(C)[C@H](C(=O)N(C)C)CC(=O)N1C [PP2809],A (a compound having 10 or more and less than 20 is denoted as A),A (a compound having 10 or more and less than 20 is denoted as A)
CCO[C@@H]1C[C@H]2C(=O)N(C)C3(CC(C)(C)C3)C(=O)N(C)[C@@H](C(CC)CC)C(=O)N(C)[C@H](C(=O)N(C)C)CC(=O)N(C)[C@@H](COC)C(=O)N[C@@H]([C@@H](C)CC)C(=O)N(C)CC(=O)N(C)[C@H]3C/C=C\CCN(C3=O)[C@@H](Cc3ccc(C)cc3)C(=O)N(C)CC(=O)N[C@@H](CCc3ccc(Cl)c(Cl)c3)C(=O)N2C1 [PP2810],A (a compound having 10 or more and less than 20 is denoted as A),AA (a compound having 20 or more is denoted as AA)
CCC[C@H]1C(=O)N[C@@H]([C@@H](C)CC)C(=O)N(C)CC(=O)N(C)[C@H]2C/C=C\CCN(C2=O)[C@@H](Cc2ccc(C(F)(F)F)cc2)C(=O)N(C)CC(=O)N[C@@H](CCc2ccc(Cl)c(Cl)c2)C(=O)N2C[C@H](OCC)C[C@H]2C(=O)NC2(CC(C)(C)C2)C(=O)N(C)[C@@H](CC2CC2)C(=O)N(C)[C@H](C(=O)N(C)C)CC(=O)N1C [PP2811],A (a compound having 10 or more and less than 20 is denoted as A),A (a compound having 10 or more and less than 20 is denoted as A)
CCCO[C@@H]1C[C@H]2C(=O)N(C)C3(CC(C)(C)C3)C(=O)N(C)[C@@H](C(CC)CC)C(=O)N(C)[C@H](C(=O)N(C)C)CC(=O)N(C)[C@@H](COC)C(=O)N[C@@H]([C@@H](C)CC)C(=O)N(C)CC(=O)N(C)[C@H]3C/C=C\CCN(C3=O)[C@@H](Cc3ccc(C)cc3)C(=O)N(C)CC(=O)N[C@@H](CCc3ccc(Cl)c(Cl)c3)C(=O)N2C1 [PP2812],A (a compound having 10 or more and less than 20 is denoted as A),AA (a compound having 20 or more is denoted as AA)
CCC[C@H]1C(=O)N[C@@H]([C@@H](C)CC)C(=O)N(C2CC2)CC(=O)N(C)[C@H]2C/C=C\CCN(C2=O)[C@@H](Cc2ccc(C(F)(F)F)cc2)C(=O)N(C)CC(=O)N[C@@H](CCc2cc(F)c(C(F)(F)F)c(F)c2)C(=O)N2C[C@H](OCC)C[C@H]2C(=O)NC2(CC(C)(C)C2)C(=O)N(C)[C@@H](CC2CC2)C(=O)N(C)[C@H](C(=O)N(C)C)CC(=O)N1C [PP2813],A (a compound having 10 or more and less than 20 is denoted as A),AA (a compound having 20 or more is denoted as AA)
CCC(CC)[C@H]1C(=O)N(C)[C@H](C(=O)N(C)C)CC(=O)N(C)[C@@H](COC)C(=O)N[C@@H]([C@@H](C)CC)C(=O)N(C)CC(=O)N(C)[C@H]2C/C=C\CCN(C2=O)[C@@H](Cc2ccc(C)cc2)C(=O)N(C)CC(=O)N[C@@H](CCc2ccc(Cl)c(Cl)c2)C(=O)N2C[C@H](OC(C)C)C[C@H]2C(=O)N(C)C2(CC(C)(C)C2)C(=O)N1C [PP2814],A (a compound having 10 or more and less than 20 is denoted as A),AA (a compound having 20 or more is denoted as AA)
CCC[C@H]1C(=O)N[C@@H]([C@@H](C)CC)C(=O)N(C2CC2)CC(=O)N(C)[C@H]2C/C=C\CCN(C2=O)[C@@H](Cc2ccc(C(F)(F)F)cc2)C(=O)N(C)CC(=O)N[C@@H](CCc2ccc(C(F)(F)F)c(OC)c2)C(=O)N2C[C@H](OCC)C[C@H]2C(=O)NC2(CC(C)(C)C2)C(=O)N(C)[C@@H](CC2CC2)C(=O)N(C)[C@H](C(=O)N(C)C)CC(=O)N1C [PP2815],A (a compound having 10 or more and less than 20 is denoted as A),A (a compound having 10 or more and less than 20 is denoted as A)
CCC(CC)[C@H]1C(=O)N(C)[C@H](C(=O)N(C)C)CC(=O)N(C)[C@@H](COC)C(=O)N[C@@H]([C@@H](C)CC)C(=O)N(C)CC(=O)N(C)[C@H]2C/C=C\CCN(C2=O)[C@@H](Cc2ccc(C)cc2)C(=O)N(C)CC(=O)N[C@@H](CCc2ccc(Cl)c(Cl)c2)C(=O)N2C[C@H](OC3CCC3)C[C@H]2C(=O)N(C)C2(CC(C)(C)C2)C(=O)N1C [PP2816],A (a compound having 10 or more and less than 20 is denoted as A),AA (a compound having 20 or more is denoted as AA)
CCC[C@H]1C(=O)N[C@@H]([C@@H](C)CC)C(=O)N(C2CC2)CC(=O)N(C)[C@H]2C/C=C\CCN(C2=O)[C@@H](Cc2ccc(C(F)(F)F)cc2)C(=O)N(C)CC(=O)N[C@@H](CCc2ccc(Cl)c(Cl)c2)C(=O)N2C[C@H](OCC)C[C@H]2C(=O)NC2(CC(C)(C)C2)C(=O)N(C)[C@@H](CC2CC2)C(=O)N(C)[C@H](C(=O)N(C)C)CC(=O)N1C [PP2817],A (a compound having 10 or more and less than 20 is denoted as A),A (a compound having 10 or more and less than 20 is denoted as A)
CCC(CC)[C@H]1C(=O)N(C)[C@H](C(=O)N(C)C)CC(=O)N(C)[C@@H](COC)C(=O)N[C@@H]([C@@H](C)CC)C(=O)N(C)CC(=O)N(C)[C@H]2C/C=C\CCN(C2=O)[C@@H](Cc2ccc(C)cc2)C(=O)N(C)CC(=O)N[C@@H](CCc2ccc(Cl)c(Cl)c2)C(=O)N2C[C@H](OC3CCCC3)C[C@H]2C(=O)N(C)C2(CC(C)(C)C2)C(=O)N1C [PP2818],A (a compound having 10 or more and less than 20 is denoted as A),A (a compound having 10 or more and less than 20 is denoted as A)
